The structures appear in SMILES notation.

In one test the target is T1, substance P receptors (Homo sapiens, UniProt P25103).
T1 construct: The receptor was prepared from human lymphoblast cells (IM-9); endogenous in cells; host or cells: IM-9 human lymphoblast cells (membrane preparation)
T1 sequence (P25103 whole entry): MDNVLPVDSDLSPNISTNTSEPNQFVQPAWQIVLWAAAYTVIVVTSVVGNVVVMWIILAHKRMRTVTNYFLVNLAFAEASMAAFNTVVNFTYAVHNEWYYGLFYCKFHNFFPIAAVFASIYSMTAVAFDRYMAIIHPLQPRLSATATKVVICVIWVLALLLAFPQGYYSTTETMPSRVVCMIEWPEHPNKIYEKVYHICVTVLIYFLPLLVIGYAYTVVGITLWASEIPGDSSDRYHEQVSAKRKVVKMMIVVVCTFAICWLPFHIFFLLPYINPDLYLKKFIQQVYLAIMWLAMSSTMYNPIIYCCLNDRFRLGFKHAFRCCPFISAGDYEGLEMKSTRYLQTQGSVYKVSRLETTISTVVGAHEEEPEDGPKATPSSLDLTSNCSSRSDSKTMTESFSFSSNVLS
Kind of test: Radioligand receptor binding inhibitory activity using receptor from human lymphoblast cells (IM-9), 125I-BHSP. The note with it: IC50 (concentration necessary to cause 50% inhibition), radioligand 125I-BHSP, 25° C., 30 minutes. As to the method:
Radioligand receptor binding inhibitory activity (Binding inhibitory activity using receptor from human lymphoblast cells (IM-9))
The method of M. A. Cascieri et al., [Molecular Pharmacology, vol. 42, p. […] The receptor was prepared from human lymphoblast cells (IM-9). IM-9 cells (2×10^5 cells/mL) were incubated for 3 days (one liter), which was then subjected to centrifugation for 5 minutes at 500×G to obtain cell pellets. […] The residue was washed twice with 30 mL of the above-mentioned buffer, which was then preserved frozen (−80° C.) as a specimen of the receptor.
The specimen was suspended in a reaction buffer (50 mM Tri-HCl buffer (pH 7.4), 0.02% bovine serum albumin, 1 mM phenylmethylsulfonyl fluoride, 2 μg/mL chymostatin, 40 μg/mL bacitracin and 3 mM manganese chloride) to have protein in the concentration of 0.5 mg/mL of protein and 100 μL portion of the suspension was used in the reaction. […] The amount of nonspecific binding was determined by adding substance P at a final concentration of 2×10^−6 M.
After the reaction, using a cell harvester (290 PHD, Cambridge Technology, Inc., U.S.A.), filtration was carried out through a glass filter (GF/B, Whatman, U.S.A.), which was immersed in 0.1% polyethyleneimine for 24 hours and dried. After washing three times with 250 μL of 50 mM Tris-HCl buffer (pH 7.4) containing 0.02% bovine serum albumin, the radioactivity remaining on the filter was determined with a gamma counter.
`COc1ccc(-c2ccc(C#N)cc2)cc1CN[C@H]1CCN(C(=O)C2CCN(C(C)=O)CC2)C[C@H]1c1ccccc1` [Example 35, 3′-[({(3R,4S)-1-[(1-acetylpiperidin-4-yl)carbonyl]-3-phenylpiperidin-4-yl}amino)methyl]-4′-methoxybiphenyl-4-carbonitrile] registered an IC50 of 0.017 nM.

The test is the same for the next values; noted with them: radioligand 125I-BHSP, 25° C., 30 minutes, read-out: IC50 (concentration necessary to cause 50% inhibition).
As to `COc1ccc(-c2ccc(C#N)cc2F)cc1CN[C@H]1CCN(C(=O)CNC(C)=O)C[C@H]1c1ccccc1` [Example 11, N-[2-((3R,4S)-4-{[(4′-cyano-2′-fluoro-4-methoxybiphenyl-3-yl)methyl]amino}-3-phenylpiperidin-1-yl)-2-oxoethyl]acetamide], the IC50 worked out at 0.016 nM.

In the case of `CC1(C)OC(=O)N(CC(=O)N2CC[C@H](NCc3cc(-c4ccc(Cl)cc4)ccc3OC(F)(F)F)[C@H](c3ccccc3)C2)C1=O` [Example 116, 3-{2-[(3R,4S)-4-({[4′-chloro-4-(trifluoromethoxy)biphenyl-3-yl]methyl}amino)-3-phenylpiperidin-1-yl]-2-oxoethyl}-5,5-dimethyl-1;3-oxazolidine-2,4-dione], the IC50 was determined as 0.058 nM.

Take `COc1ccc(-c2ccc(C#N)cc2)cc1CN[C@H]1CCN(C(=O)C2CC(=O)NC(=O)C2)C[C@H]1c1ccccc1` [Example 42, 3′-[({(3R,4S)-1-[(2,6-dioxopiperidin-4-yl)carbonyl]-3-phenylpiperidin-4-yl}amino)methyl]-4′-methoxybiphenyl-4-carbonitrile]: the IC50 amounted to 0.014 nM.

Take `CC(=O)NCC(=O)N1CC[C@H](NCc2cc(-c3ccc(Cl)cc3)ccc2OC(F)(F)F)[C@H](c2ccccc2)C1` [Example 72, N-{2-[(3R,4S)-4-({[4′-chloro-4-(trifluoromethoxy)biphenyl-3-yl]methyl}amino)-3-phenylpiperidin-1-yl]-2-oxoethyl}acetamide]: the IC50 was found to be 0.023 nM.

For the compound `COCC(=O)N1CC[C@H](NCc2cc(-c3ccc(C#N)cc3F)ccc2OC)[C@H](c2ccccc2)C1` [Example 33, 2-fluoro-4′-methoxy-3′-({[(3R,4S)-1-(methoxyacetyl)-3-phenylpiperidin-4-yl]amino}methyl)biphenyl-4-carbonitrile], the IC50 was found to be 0.015 nM.

For the compound `COc1ccc(-c2ccc(Br)cc2)cc1CN[C@H]1CCN(C(=O)CNC(C)=O)C[C@H]1c1ccccc1` [Example 22, N-[2-((3R,4S)-4-{[(4′-bromo-4-methoxybiphenyl-3-yl)methyl]amino}-3-phenylpiperidin-1-yl)-2-oxoethyl]acetamide], the IC50 came out at 0.018 nM.

Turning to `COc1ccc(-c2ccc(Cl)cc2)cc1CN[C@H]1CCN(C(=O)CNC(C)=O)C[C@H]1c1ccccc1` [Example 15, N-[2-((3R,4S)-4-{[(4′-chloro-4-methoxybiphenyl-3-yl)methyl]amino}-3-phenylpiperidin-1-yl)-2-oxoethyl]acetamide], the IC50 was 0.02 nM.

For `COCC(=O)N1CC[C@H](NCc2cc(-c3ccc(C#N)cc3)ccc2OC)[C@H](c2ccccc2)C1` [Example 32, 4′-methoxy-3′-({[(3R,4S)-1-(methoxyacetyl)-3-phenylpiperidin-4-yl]amino}methyl)biphenyl-4-carbonitrile], the IC50 stood at 0.015 nM.

On to `COc1ccc(-c2ccc(C#N)cc2)cc1CN[C@H]1CCN(C(=O)Cc2n[nH]c(=O)[nH]2)C[C@H]1c1ccccc1` [Example 44, 4′-methoxy-3′-[({(3R,4S)-1-[(5-oxo-4,5-dihydro-1H-1,2,4-triazol-3-yl)acetyl]-3-phenylpiperidin-4-yl}amino)methyl]biphenyl-4-carbonitrile], for which the IC50 amounted to 0.015 nM.

As to `COc1ccc(-c2ccc(C#N)cc2C)cc1CN[C@H]1CCN(C(=O)CNC(C)=O)C[C@H]1c1ccccc1` [Example 25, N-[2-((3R,4S)-4-{[(4′-cyano-4-methoxy-2′-methylbiphenyl-3-yl)methyl]amino}-3-phenylpiperidin-1-yl)-2-oxoethyl]acetamide], the IC50 came out at 0.018 nM.

Turning to `COc1ccc(-c2ccc(C#N)cc2)cc1CN[C@H]1CCN(C(=O)[C@@H](CC(N)=O)NC(C)=O)C[C@H]1c1ccccc1` [Example 41, (3R)-3-(acetylamino)-4-((3R,4S)-4-{[(4′-cyano-4-methoxybiphenyl-3-yl)methyl]amino}-3-phenylpiperidin-1-yl)-4-oxobutanamide], the IC50 was 0.019 nM.

On to `O=C1CC(C(=O)N2CC[C@H](NCc3cc(-c4ccc(Cl)cc4F)ccc3OC(F)(F)F)[C@H](c3ccccc3)C2)CC(=O)N1` [Example 132, 4-{[(3R,4S)-4-({[4′-chloro-2′-fluoro-4-(trifluoromethoxy)biphenyl-3-yl]methyl}amino)-3-phenylpiperidin-1-yl]carbonyl}piperidine-2,6-dione], for which the IC50 came to 0.14 nM.

For `CC(=O)N1CCC(C(=O)N2CC[C@H](NCc3cc(-c4ccc(C#N)cc4F)ccc3OC(F)(F)F)[C@H](c3ccccc3)C2)CC1` [Example 101, 3′-[({(3R,4S)-1-[(1-acetylpiperidin-4-yl)carbonyl]-3-phenylpiperidin-4-yl}amino)methyl]-2-fluoro-4′-(trifluoromethoxy)biphenyl-4-carbonitrile], the IC50 came to 0.024 nM.

`N#Cc1ccc(-c2ccc(OC(F)(F)F)c(CN[C@H]3CCN(C(=O)C4CC(=O)NC(=O)C4)C[C@H]3c3ccccc3)c2)c(F)c1` [Example 102, 3′-[({(3R,4S)-1-[(2,6-dioxopiperidin-4-yl)carbonyl]-3-phenylpiperidin-4-yl}amino)methyl]-2-fluoro-4′-(trifluoromethoxy)biphenyl-4-carbonitrile]: the IC50 came to 0.013 nM.

Regarding `COc1ccc(-c2ccc(C#N)cc2F)cc1CN[C@H]1CCN(C(=O)C2CCN(C(C)=O)CC2)C[C@H]1c1ccccc1` [Example 36, 3′-[({(3R,4S)-1-[(1-acetylpiperidin-4-yl)carbonyl]-3-phenylpiperidin-4-yl}amino)methyl]-2-fluoro-4′-methoxybiphenyl-4-carbonitrile], the IC50 was 0.017 nM.

Consider `CC1(C)OC(=O)N(CC(=O)N2CC[C@H](NCc3cc(-c4ccc(C#N)cc4F)ccc3OC(F)(F)F)[C@H](c3ccccc3)C2)C1=O` [Example 97, 3′-[({(3R,4S)-1-[(5,5-dimethyl-2,4-dioxo-1,3-oxazolidin-3-yl)acetyl]-3-phenylpiperidin-4-yl}amino)methyl]-2-fluoro-4′-(trifluoromethoxy)biphenyl-4-carbonitrile], for which the IC50 stood at 0.023 nM.

As to `COc1ccc(-c2ccc(C#N)cc2)cc1CN[C@H]1CCN(C(=O)CNC(C)=O)C[C@H]1c1ccccc1` [Example 10, N-[2-((3R,4S)-4-{[(4′-cyano-4-methoxybiphenyl-3-yl)methyl]amino}-3-phenylpiperidin-1-yl)-2-oxoethyl]acetamide], the IC50 is 0.019 nM.

For `COc1ccc(-c2ccc(C#N)cc2)cc1CN[C@H]1CCN(C(=O)Cn2cnnn2)C[C@H]1c1ccccc1` [Example 43, 4′-methoxy-3′-({[(3R,4S)-3-phenyl-1-(1H-tetrazol-1-ylacetyl)piperidin-4-yl]amino}methyl)biphenyl-4-carbonitrile], the IC50 turned out to be 0.015 nM.

Consider `COc1ccc(-c2ccc(F)cc2)cc1CN[C@H]1CCN(C(=O)CNC(C)=O)C[C@H]1c1ccccc1` [Example 16, N-[2-((3R,4S)-4-{[(4′-fluoro-4-methoxybiphenyl-3-yl)methyl]amino}-3-phenylpiperidin-1-yl)-2-oxoethyl]acetamide], for which the IC50 worked out at 0.031 nM.

Consider `CC1(C)OC(=O)N(CC(=O)N2CC[C@H](NCc3cc(-c4ccc(C#N)cc4)ccc3OC(F)(F)F)[C@H](c3ccccc3)C2)C1=O` [Example 137, 3′-[({(3R,4S)-1-[(5,5-dimethyl-2,4-dioxo-1,3-oxazolidin-3-yl)acetyl]-3-phenylpiperidin-4-yl}amino)methyl]-4′-(trifluoromethoxy)biphenyl-4-carbonitrile], for which the IC50 turned out to be 0.042 nM.

With `COc1ccc(-c2ccc(C(F)(F)F)cc2)cc1CN[C@H]1CCN(C(=O)CNC(C)=O)C[C@H]1c1ccccc1` [Example 18, N-{2-[(3R,4S)-4-({[4-methoxy-4′-(trifluoromethyl)biphenyl-3-yl]methyl}amino)-3-phenylpiperidin-1-yl]-2-oxoethyl}acetamide], the IC50 came to 0.036 nM.

Turning to `COc1ccc(-c2ccc(C#N)c(F)c2)cc1CN[C@H]1CCN(C(=O)CNC(C)=O)C[C@H]1c1ccccc1` [Example 21, N-[2-((3R,4S)-4-{[(4′-cyano-3′-fluoro-4-methoxybiphenyl-3-yl)methyl]amino}-3-phenylpiperidin-1-yl)-2-oxoethyl]acetamide], the IC50 is 0.019 nM.

`C#Cc1ccc(-c2ccc(OC)c(CN[C@H]3CCN(C(=O)CNC(C)=O)C[C@H]3c3ccccc3)c2)cc1` [Example 23, N-[2-((3R,4S)-4-{[(4′-ethynyl-4-methoxybiphenyl-3-yl)methyl]amino}-3-phenylpiperidin-1-yl)-2-oxoethyl]acetamide]: the IC50 came out at 0.015 nM.

On to `CC1(C)OC(=O)N(CC(=O)N2CC[C@H](NCc3cc(-c4ccc(C#N)cc4F)ccc3OC(F)(F)F)[C@H](c3ccccc3)C2)C1=O` [Example 96, 3′-[({(3R,4S)-1-[(5,5-dimethyl-2,4-dioxo-1,3-oxazolidin-3-yl)acetyl]-3-phenylpiperidin-4-yl}amino)methyl]-2-fluoro-4′-(trifluoromethoxy)biphenyl-4-carbonitrile], for which the IC50 stood at 0.021 nM.

For the origin of these results see patent US20070149570A1, “Piperidine derivative and use thereof” (priority 2005, published 2007).
